Source: patent publication US20130123357A1, “Methods for Providing Enhanced Resveratrol Activity Using 4-Acetoxy-Resveratrol” (BRIGHAM YOUNG UNIVERSITY, priority 2010, published 2013)

Experiments:
Desmocollin 1 = assay: Gene array qPCR, human dermal equivalent: Desmocollin 1; assay type: cell-based; details: 1.0% 4AR in DMSO, human skin equivalent, 24 hours, mRNA by qPCR
From the text: (§1) In this gene array experiment, we examined the ability of 4AR at a one percent concentration in DMSO (where 100% DMSO served as the vehicle) to either stimulate or inhibit several important genes and quantify directly the transcribed messenger RNA (mRNA) levels by Taqman real time PCR. The test material was placed onto a biological barrier (human dermal equivalent) using a MatTek “ready-to-use” in vitro organotypic tissue equivalent, based on well-documented and validated protocols, using the EpiDerm™ Model EPI-200 Kit. The MatTek kits uses normal (non-transformed) donated human cells as the basis for all of its tissue equivalents. These cells are grown (cultured) in standard Millipore Millicell™ Single Well Tissue Culture Plate Inserts at the air liquid interface or ALI. Apical (top) surface of tissue is exposed to air allowing for direct application of test articles. […] Once the 4 AR test material penetrated the human skin barrier equivalent the gene chip was activated and subsequently mRNA levels were quantified and the results represent stimulation or inhibition of a specific gene.
(§2) To investigate the effects of 4AR on the expression of genes associated with the extracellular matrix (ECM) of the skin, qPCR experiments were conducted using the tissue cultures (model system described above) with subsequent quantification of mRNA levels from […] tissue/cells. […]

[1] = system: Tissue Inhibitor of metalloproteinases 2 (TIMP2); assay: Gene array qPCR, human dermal equivalent: TIMP2; assay type: cell-based; details: 1.0% 4AR in DMSO, human skin equivalent, 24 hours, mRNA by qPCR
From the text: as §1, §2

IL-6 (interleukin 6) = assay: Gene array qPCR, human dermal equivalent: IL-6; assay type: cell-based; details: 1.0% 4AR in DMSO, human skin equivalent, 24 hours, mRNA by qPCR
From the text: as §1, §2

JunD = assay: Gene array qPCR, human dermal equivalent: JunD; assay type: cell-based; details: 1.0% 4AR in DMSO, human skin equivalent, 24 hours, mRNA by qPCR
From the text: as §1, §2

IL-8 (interleukin 8) = assay: Gene array qPCR, human dermal equivalent: IL-8; assay type: cell-based; details: 1.0% 4AR in DMSO, human skin equivalent, 24 hours, mRNA by qPCR
From the text: as §1, §2

Fibrillin = assay: Gene array qPCR, human dermal equivalent: Fibrillin; assay type: cell-based; details: 1.0% 4AR in DMSO, human skin equivalent, 24 hours, mRNA by qPCR
From the text: as §1, §2

[2] = system: Fos (FBJ murine osteosarcoma viral oncogene); assay: Gene array qPCR, human dermal equivalent: Fos; assay type: cell-based; details: 1.0% 4AR in DMSO, human skin equivalent, 24 hours, mRNA by qPCR
From the text: as §1, §2

Catalase = assay: Gene array qPCR, human dermal equivalent: Catalase; assay type: cell-based; details: 1.0% 4AR in DMSO, human skin equivalent, 24 hours, mRNA by qPCR
From the text: as §1, §2

[3] = system: S100 Calcium binding protein A8; assay: Gene array qPCR, human dermal equivalent: S100 A8; assay type: cell-based; details: 1.0% 4AR in DMSO, human skin equivalent, 24 hours, mRNA by qPCR
From the text: as §1, §2

[4] = Shelf-life stability of the synthesized material; assay type: physicochemical
From the text: The synthetic method described above uses a direct, efficient synthesis at a low cost, and results in improved stability (longer shelf life) where it remains a white crystalline material for over 2 years, as well as higher biological activity (increase absorption, lower dose and longer half-life) with various cosmetic, nutraceuticals (nutritional supplements) and pharmaceutical applications, including (a) anti-aging, anti-oxidant, (b) anti-inflammatory, (c) anti-cancer, (d) neuroprotection (for improved brain health), (e) cardiovascular health, (f) prostate health and (g) skin health, as described below in the following examples.

[5] = system: TGF (transforming growth factor) beta type II receptor; assay: Gene array qPCR, human dermal equivalent: TGF beta type II receptor; assay type: cell-based; details: 1.0% 4AR in DMSO, human skin equivalent, 24 hours, mRNA by qPCR
From the text: as §1, §2

IL-1a (interleukin 1a) = assay: Gene array qPCR, human dermal equivalent: IL-1a; assay type: cell-based; details: 1.0% 4AR in DMSO, human skin equivalent, 24 hours, mRNA by qPCR
From the text: as §1, §2

[6] = system: IGF1 (Insulin-like growth factor 1); assay: Gene array qPCR, human dermal equivalent: IGF1; assay type: cell-based; details: 1.0% 4AR in DMSO, human skin equivalent, 24 hours, mRNA by qPCR
From the text: as §1, §2

[7] = system: IL-1RII (interleukin 1RII); assay: Gene array qPCR, human dermal equivalent: IL-1RII; assay type: cell-based; details: 1.0% 4AR in DMSO, human skin equivalent, 24 hours, mRNA by qPCR
From the text: as §1, §2

Metallothionein 2 = assay: Gene array qPCR, human dermal equivalent: Metallothionein 2; assay type: cell-based; details: 1.0% 4AR in DMSO, human skin equivalent, 24 hours, mRNA by qPCR
From the text: as §1, §2

lysyl oxidase (LOX) = assay: Gene array qPCR, human dermal equivalent: LOX; assay type: cell-based; details: 1.0% 4AR in DMSO, human skin equivalent, 24 hours, mRNA by qPCR
From the text: as §1, §2

[8] = system: PCNA (Proliferating Cell Nuclear Antigen); assay: Gene array qPCR, human dermal equivalent: PCNA; assay type: cell-based; details: 1.0% 4AR in DMSO, human skin equivalent, 24 hours, mRNA by qPCR
From the text: as §1, §2

Cytokeratin 2E = assay: Gene array qPCR, human dermal equivalent: Cytokeratin 2E; assay type: cell-based; details: 1.0% 4AR in DMSO, human skin equivalent, 24 hours, mRNA by qPCR
From the text: as §1, §2

[9] = Body weight gain and food/water intake in rats, 21 days; assay type: in vivo, adult male Long-Evans rats
Protocol: Adult male Long-Evans rats were administered 4AR for 21 days. DMSO served as the control and 4AR was dissolved into DMSO at the following concentrations: 5.0 mg/kg body weight, 20.0 mg/kg body weight and 90.0 mg/kg body weight (n=12 per group).
After 10 days of receiving the treatments there was a significant decrease in body weight gain, by an average of approximately 17 grams, in the 90.0 mg/kg vs. the control values (525.0+5.1 vs. 542.1+6.2 grams, respectively. After 20 days on the treatments there was a significant decrease in body weight gain, by approximately 14 grams, in the 20.0 mg/kg vs. control values (566.0+4.7 vs. 551.8+3.7 grams). Finally, there was an even greater significant decrease in body weight gain between the 90.0 mg/kg vs. control values after 20 days on the treatments representing a 54.2 grams decrease (or 566.0+4.7 vs. 511.8+4.1 grams).

SMILES: CC(=O)Oc1ccc(C=Cc2cc(O)cc(O)c2)cc1 [4AR, 3,5-dihydroxy-4′-acetoxy stilbene]
- Desmocollin 1 decreased by (Desmocollin 1): by 2.4-fold
- TIMP2 increased by [1]: 1.3-fold
- IL-6 decreased by (IL-6 (interleukin 6)): 35.2-fold
- JunD increased by (JunD): 2.1-fold
- IL-8 decreased by (IL-8 (interleukin 8)): 3.8-fold
- Fibrillin increased by (Fibrillin): 1.3-fold with
- Fos increased by [2]: 3.4-fold
- Catalase increased by (Catalase): 1.6-fold
- S100 Calcium binding protein A8 decreased by [3]: 2.7-fold
- stability (shelf life): remains a white crystalline material [4]: over 2 years
- TGF beta type II receptor increased by [5]: 1.7-fold
- IL-1a decreased by (IL-1a (interleukin 1a)): 10.1-fold
- IGF1 increased by [6]: 2.6-fold
- IL-1RII decreased by [7]: 1.9-fold
- Metallothionein 2 increased by (Metallothionein 2): 3.4-fold
- Lysyl oxidase increased by (lysyl oxidase (LOX)): 1.9-fold
- PCNA increased by [8]: 5.4-fold with
- CK 2E decreased by (Cytokeratin 2E): 3.5-fold with
- decrease in body weight gain vs. control ([9]; 20.0 mg/kg, after 20 days): approximately 14 grams
- body weight ([9]; 20.0 mg/kg, after 20 days, control 566.0+4.7): 551.8+3.7 grams
- decrease in body weight gain vs. control ([9]; 90.0 mg/kg, after 10 days): approximately 17 grams
- body weight ([9]; 90.0 mg/kg, after 10 days, control 542.1+6.2): 525.0+5.1 grams
- decrease in body weight gain vs. control ([9]; 90.0 mg/kg, after 20 days): 54.2 grams
- body weight ([9]; 90.0 mg/kg, after 20 days, control 566.0+4.7): 511.8+4.1 grams
